Here are results for six compounds from the supplement of paper PMC12076712.

SMILES strings stand for the structures.

Test in all cases: pIC50, kinobeads binding competition
One experiment concerns the target T1, SGK2 (UniProt Q9HBY8).
T1 sequence (whole entry): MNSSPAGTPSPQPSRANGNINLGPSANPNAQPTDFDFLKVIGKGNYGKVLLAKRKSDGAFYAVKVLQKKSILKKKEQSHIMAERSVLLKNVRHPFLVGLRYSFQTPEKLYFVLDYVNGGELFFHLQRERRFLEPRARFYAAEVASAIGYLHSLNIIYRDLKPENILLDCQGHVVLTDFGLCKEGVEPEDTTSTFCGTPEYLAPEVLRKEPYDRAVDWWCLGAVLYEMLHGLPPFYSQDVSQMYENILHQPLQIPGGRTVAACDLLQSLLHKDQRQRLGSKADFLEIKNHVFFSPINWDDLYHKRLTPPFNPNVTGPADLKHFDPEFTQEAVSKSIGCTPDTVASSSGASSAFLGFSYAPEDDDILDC
The following applies: cell material: Lysate mix. Summed up: (§1)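 Nine compound concentrations were tested, starting at 30 μM in 1:4 steps on live Jurkat cells (60 min, 37 °C, then lysis) or in 1:5 steps on Jurkat lysate or a 1:1:1:1 HEK293/K-562/HepG2/placenta lysate mix (60 min, 4 °C). Kinobeads-bound proteins were digested and quantified with TMT10 LC-MS/MS. pIC50 values are from logistic dose-response fits in the R drc package of fold changes relative to vehicle, from biological duplicates.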

In a further experiment the target is Fes (UniProt P07332). The conditions noted are these: cell material: Lysate mix. Summed up:
as §1

Another experiment deals with UniProt P45984. Summed up: as §1
Another experiment deals with UniProt Q9Y2H1. Summed up:
as §1

The target in the next experiment is T2, IRAK3 (UniProt Q9Y616).
T2 sequence (whole entry): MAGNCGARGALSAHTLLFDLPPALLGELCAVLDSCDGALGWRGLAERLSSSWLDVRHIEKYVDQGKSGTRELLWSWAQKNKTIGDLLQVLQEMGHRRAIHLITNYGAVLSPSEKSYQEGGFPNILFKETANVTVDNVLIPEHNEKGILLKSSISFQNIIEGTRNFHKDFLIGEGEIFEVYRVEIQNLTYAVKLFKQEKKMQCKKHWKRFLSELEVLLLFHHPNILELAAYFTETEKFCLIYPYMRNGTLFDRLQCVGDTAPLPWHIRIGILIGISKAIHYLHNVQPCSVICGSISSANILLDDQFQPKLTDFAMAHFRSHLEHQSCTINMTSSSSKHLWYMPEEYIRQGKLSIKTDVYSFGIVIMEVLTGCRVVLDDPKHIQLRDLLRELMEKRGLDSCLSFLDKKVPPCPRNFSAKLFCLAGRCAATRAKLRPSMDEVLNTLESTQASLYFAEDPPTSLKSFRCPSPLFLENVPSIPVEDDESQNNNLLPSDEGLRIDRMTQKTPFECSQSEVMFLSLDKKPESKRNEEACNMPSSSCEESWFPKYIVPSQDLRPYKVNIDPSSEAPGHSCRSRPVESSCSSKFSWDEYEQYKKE
The following applies: cell material: Lysate mix. Summed up: as §1

Another experiment has as its target T3, UniProt Q14164.
T3 sequence (whole entry): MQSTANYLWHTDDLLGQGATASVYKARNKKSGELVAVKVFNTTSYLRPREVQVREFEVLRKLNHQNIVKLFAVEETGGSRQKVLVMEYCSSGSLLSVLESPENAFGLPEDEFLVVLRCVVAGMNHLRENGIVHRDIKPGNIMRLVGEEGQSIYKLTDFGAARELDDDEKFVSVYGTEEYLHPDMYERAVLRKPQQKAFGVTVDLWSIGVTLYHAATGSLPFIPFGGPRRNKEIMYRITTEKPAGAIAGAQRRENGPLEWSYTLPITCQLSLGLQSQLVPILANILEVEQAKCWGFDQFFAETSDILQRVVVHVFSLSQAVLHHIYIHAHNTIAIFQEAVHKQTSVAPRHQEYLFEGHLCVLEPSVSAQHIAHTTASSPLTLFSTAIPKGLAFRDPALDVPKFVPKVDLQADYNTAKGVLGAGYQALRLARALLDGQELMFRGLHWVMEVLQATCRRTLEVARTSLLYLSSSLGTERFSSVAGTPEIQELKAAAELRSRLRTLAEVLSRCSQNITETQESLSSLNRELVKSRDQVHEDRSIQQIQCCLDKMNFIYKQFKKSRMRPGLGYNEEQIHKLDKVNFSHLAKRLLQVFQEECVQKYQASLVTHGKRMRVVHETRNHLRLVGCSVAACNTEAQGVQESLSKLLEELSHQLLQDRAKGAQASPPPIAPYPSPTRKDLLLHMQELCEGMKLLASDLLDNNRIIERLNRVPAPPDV
Summed up:
as §1

The target in another experiment is UniProt Q02750. Summed up: as §1
The next experiment has as its target CLK4 (UniProt Q9HAZ1). Summed up: as §1
A further experiment addresses T4, STRADA (UniProt Q7RTN6).
T4 sequence (whole entry): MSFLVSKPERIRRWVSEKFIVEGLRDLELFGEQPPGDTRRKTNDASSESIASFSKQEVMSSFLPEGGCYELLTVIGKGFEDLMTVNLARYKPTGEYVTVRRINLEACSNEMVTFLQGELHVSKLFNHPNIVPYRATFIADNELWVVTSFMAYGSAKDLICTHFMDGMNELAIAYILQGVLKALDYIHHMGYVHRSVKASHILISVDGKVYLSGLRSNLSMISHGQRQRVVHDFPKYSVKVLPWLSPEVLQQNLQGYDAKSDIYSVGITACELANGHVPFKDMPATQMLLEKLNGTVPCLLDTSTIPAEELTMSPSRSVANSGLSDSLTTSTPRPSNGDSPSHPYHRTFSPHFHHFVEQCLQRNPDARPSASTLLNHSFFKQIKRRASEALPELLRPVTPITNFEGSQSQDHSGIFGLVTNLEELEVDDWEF
The gist of the method: as §1

A further experiment deals with CDK4 (UniProt P11802). The following applies: cell material: Lysate mix. Summed up:
as §1

For orientation: pIC50 means the negative decadic logarithm of the IC50, by convention in mol/L. A high value points to a small IC50.

CDK4, sequence (P11802 whole entry): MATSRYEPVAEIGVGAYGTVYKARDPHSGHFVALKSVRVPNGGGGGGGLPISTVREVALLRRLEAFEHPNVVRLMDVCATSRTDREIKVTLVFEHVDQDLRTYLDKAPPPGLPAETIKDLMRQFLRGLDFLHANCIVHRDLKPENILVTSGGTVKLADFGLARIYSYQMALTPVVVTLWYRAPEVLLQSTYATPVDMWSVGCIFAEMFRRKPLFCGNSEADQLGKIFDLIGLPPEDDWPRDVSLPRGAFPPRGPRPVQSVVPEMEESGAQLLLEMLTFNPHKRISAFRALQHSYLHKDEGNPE
CLK4, sequence (Q9HAZ1 whole entry, looked up): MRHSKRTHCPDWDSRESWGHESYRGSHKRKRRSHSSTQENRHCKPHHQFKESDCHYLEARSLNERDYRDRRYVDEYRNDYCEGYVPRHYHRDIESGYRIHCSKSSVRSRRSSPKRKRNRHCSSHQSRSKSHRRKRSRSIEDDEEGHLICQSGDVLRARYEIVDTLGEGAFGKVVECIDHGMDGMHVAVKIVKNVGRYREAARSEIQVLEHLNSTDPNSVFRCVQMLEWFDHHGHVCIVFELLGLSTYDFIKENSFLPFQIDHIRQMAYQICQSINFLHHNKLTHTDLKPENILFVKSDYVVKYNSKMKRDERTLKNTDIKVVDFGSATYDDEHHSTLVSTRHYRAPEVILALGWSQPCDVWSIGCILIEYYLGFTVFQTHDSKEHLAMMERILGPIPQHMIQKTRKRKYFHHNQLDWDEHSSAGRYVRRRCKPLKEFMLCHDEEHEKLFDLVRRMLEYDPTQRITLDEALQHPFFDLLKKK
UniProt Q9Y2H1, sequence (Q9Y2H1 whole entry, looked up): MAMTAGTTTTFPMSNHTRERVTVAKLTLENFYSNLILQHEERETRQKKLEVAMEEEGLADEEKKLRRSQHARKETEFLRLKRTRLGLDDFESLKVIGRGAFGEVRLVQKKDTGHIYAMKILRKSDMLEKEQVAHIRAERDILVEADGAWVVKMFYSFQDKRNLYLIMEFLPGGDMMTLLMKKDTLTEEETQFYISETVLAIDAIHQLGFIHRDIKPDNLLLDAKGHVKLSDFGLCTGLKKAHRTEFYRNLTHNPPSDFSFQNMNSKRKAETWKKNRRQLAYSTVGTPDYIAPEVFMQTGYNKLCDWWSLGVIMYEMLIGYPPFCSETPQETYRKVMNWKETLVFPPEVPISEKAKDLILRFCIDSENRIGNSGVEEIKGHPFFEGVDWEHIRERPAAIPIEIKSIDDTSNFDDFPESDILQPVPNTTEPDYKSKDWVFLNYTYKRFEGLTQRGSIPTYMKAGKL
UniProt Q02750, sequence (Q02750 whole entry): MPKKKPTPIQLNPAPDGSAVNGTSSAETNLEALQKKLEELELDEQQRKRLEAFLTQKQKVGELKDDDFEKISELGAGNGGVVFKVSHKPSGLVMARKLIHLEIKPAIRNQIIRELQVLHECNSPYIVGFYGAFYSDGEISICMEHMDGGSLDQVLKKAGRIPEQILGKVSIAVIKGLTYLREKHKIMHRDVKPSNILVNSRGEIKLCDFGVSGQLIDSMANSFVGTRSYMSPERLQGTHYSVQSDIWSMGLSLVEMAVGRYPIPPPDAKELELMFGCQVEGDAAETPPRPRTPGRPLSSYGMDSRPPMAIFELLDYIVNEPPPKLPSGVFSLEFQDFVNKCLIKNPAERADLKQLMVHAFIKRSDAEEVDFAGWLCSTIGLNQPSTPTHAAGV
Fes, sequence (P07332 whole entry): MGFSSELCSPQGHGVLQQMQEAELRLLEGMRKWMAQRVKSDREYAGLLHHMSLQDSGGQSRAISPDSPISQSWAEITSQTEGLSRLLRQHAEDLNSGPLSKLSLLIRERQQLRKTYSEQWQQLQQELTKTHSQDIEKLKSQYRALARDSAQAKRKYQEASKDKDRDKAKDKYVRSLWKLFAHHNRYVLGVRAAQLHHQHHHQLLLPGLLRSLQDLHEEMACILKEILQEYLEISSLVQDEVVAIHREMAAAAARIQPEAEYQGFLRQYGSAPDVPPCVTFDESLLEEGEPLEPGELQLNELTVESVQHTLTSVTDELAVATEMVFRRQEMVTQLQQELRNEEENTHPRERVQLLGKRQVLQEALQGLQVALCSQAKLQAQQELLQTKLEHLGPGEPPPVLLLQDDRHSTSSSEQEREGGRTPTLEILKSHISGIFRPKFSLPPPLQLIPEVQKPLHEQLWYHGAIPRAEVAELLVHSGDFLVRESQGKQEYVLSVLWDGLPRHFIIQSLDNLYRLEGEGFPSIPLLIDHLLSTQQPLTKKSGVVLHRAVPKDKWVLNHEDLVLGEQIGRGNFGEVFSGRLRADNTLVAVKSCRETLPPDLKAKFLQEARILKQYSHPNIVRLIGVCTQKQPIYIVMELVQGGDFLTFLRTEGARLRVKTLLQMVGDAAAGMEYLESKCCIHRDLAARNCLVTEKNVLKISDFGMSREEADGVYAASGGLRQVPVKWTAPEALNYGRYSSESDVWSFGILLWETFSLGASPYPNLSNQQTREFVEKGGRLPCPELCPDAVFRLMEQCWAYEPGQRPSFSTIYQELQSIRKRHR
UniProt P45984, sequence (P45984 whole entry, looked up): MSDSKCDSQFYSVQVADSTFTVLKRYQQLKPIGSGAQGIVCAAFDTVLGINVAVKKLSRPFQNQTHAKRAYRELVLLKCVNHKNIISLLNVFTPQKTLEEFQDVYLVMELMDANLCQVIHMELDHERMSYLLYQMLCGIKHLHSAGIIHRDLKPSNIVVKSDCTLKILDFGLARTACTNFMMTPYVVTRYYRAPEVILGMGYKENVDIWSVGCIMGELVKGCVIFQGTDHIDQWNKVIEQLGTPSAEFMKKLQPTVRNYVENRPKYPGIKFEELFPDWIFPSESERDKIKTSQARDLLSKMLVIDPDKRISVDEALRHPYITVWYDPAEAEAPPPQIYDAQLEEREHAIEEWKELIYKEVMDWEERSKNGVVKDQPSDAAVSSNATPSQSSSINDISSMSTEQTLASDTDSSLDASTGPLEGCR

Consider `C#CCNC(=O)c1cc(Nc2cc(C)[nH]n2)nc(N2CCN(Cc3ccc(S(=O)(=O)F)cc3)CC2)n1`, for which the negative-log IC50 (pIC50) is 5.8 at SGK2; below 4.52 at Fes; 5.34 at UniProt P45984 (cell material: Lysate mix); 4.77 at UniProt Q9Y2H1 (cell material: Lysate mix); below 4.52 on IRAK3; below 4.52 at UniProt Q14164 (cell material: Lysate mix).
With `O=C(NCCNC(=O)c1cc(Nc2cc(C3CC3)[nH]n2)nc(N2CCN(Cc3ccc(S(=O)(=O)F)cc3)CC2)n1)OC1CC/C=C/CCC1` (stereo not drawn), the negative-log IC50 (pIC50) was below 4.52 on UniProt Q02750 (cell material: Jurkat lysate); below 4.52 at UniProt Q02750 (cell material: Lysate mix); below 4.52 at Fes; below 4.52 on CLK4 (cell material: Jurkat lysate); below 4.52 at CLK4 (cell material: Lysate mix); 5.78 at STRADA (cell material: Jurkat cells). The pIC50 is below 4.52 on STRADA (cell material: Jurkat lysate); below 4.52 at STRADA (cell material: Lysate mix); 5.7 on UniProt P45984 (cell material: Jurkat cells); below 4.52 on UniProt P45984 (cell material: Jurkat lysate); 5.79 at UniProt Q9Y2H1 (cell material: Jurkat cells); below 4.52 at UniProt Q9Y2H1 (cell material: Lysate mix). The pIC50 was below 4.52 on IRAK3, 5.28 on UniProt Q14164 (cell material: Jurkat cells), below 4.52 on UniProt Q14164 (cell material: Jurkat lysate) and below 4.52 on UniProt Q14164 (cell material: Lysate mix).
As to `CCNC(=O)c1cc(Nc2cc(C3CC3)[nH]n2)nc(N2CCN(Cc3ccc(S(=O)(=O)F)cc3)CC2)n1`, the pIC50 at UniProt Q02750 (cell material: Lysate mix) stood at 5.78; at SGK2, 5.7; on CLK4 (cell material: Lysate mix), 5.05; on STRADA (cell material: Lysate mix), 5.29; at CDK4, 5.05; on UniProt P45984 (cell material: Lysate mix), 5.62. At UniProt Q14164 (cell material: Lysate mix), this compound had a negative-log IC50 (pIC50) of 5.08.
On to `Cc1cc(Nc2cc(C(=O)NCCNC(=O)OC3CC/C=C/CCC3)nc(N3CCN(Cc4ccc(S(=O)(=O)F)cc4)CC3)n2)n[nH]1` (stereo not drawn), for which the pIC50 on UniProt Q02750 (cell material: Lysate mix), on SGK2, on Fes, on CLK4 (cell material: Lysate mix), on STRADA (cell material: Lysate mix) and on CDK4 was below 4.52 throughout. Besides, the pIC50 at UniProt Q9Y2H1 (cell material: Lysate mix) and on UniProt Q14164 (cell material: Lysate mix) was below 4.52 in each case.
Turning to `CCNC(=O)c1cc(Nc2cc(C)[nH]n2)nc(N2CCN(Cc3ccc(S(=O)(=O)F)cc3)CC2)n1`, the negative-log IC50 (pIC50) at SGK2 was 5.46; on Fes it was below 4.52; at CLK4 (cell material: Lysate mix), below 4.52; at CDK4 it was below 4.52; at UniProt P45984 (cell material: Lysate mix) it was 5.2; on UniProt Q9Y2H1 (cell material: Lysate mix), below 4.52.
In the case of `C#CCNC(=O)c1cc(Nc2cc(C3CC3)[nH]n2)nc(N2CCN(Cc3ccc(S(=O)(=O)F)cc3)CC2)n1`, the pIC50 at UniProt Q02750 (cell material: Jurkat cells) was 5.86; at UniProt Q02750 (cell material: Jurkat lysate) it was below 4.52; at UniProt Q02750 (cell material: Lysate mix) it was 5.59; at SGK2, 6.52; on Fes, 5.24; on CLK4 (cell material: Jurkat cells), 6.1. Besides, the pIC50 on CLK4 (cell material: Jurkat lysate) was 4.85; at CLK4 (cell material: Lysate mix), 5.2; on STRADA (cell material: Jurkat cells), 5.99; on STRADA (cell material: Jurkat lysate) it was 5.36; on STRADA (cell material: Lysate mix), 5.7; at UniProt P45984 (cell material: Jurkat cells), 5.92. The pIC50 on UniProt P45984 (cell material: Jurkat lysate) is 5.22; on UniProt P45984 (cell material: Lysate mix) it was 5.72; at UniProt Q9Y2H1 (cell material: Jurkat cells) it was 6.28; on UniProt Q9Y2H1 (cell material: Jurkat lysate), 5.56; at IRAK3, below 4.52; on UniProt Q14164 (cell material: Jurkat cells), 6. The figures for the negative logarithm of the IC50 (pIC50) at UniProt Q14164 (cell material: Jurkat lysate) and at UniProt Q14164 (cell material: Lysate mix) were 4.89 and 5.25, respectively.
